Tested on: patients with treatment-resistant depression (TRD)
Experiment: Adverse events (Example 7)
Format: in vivo, human
Procedure: Adverse events were monitored throughout the study. Other safety assessments (i.e., laboratory tests, vital signs, physical examination) were performed at pre-specified time points. Vital signs, the Clinician Administered Dissociative States Scale (CADSS; Bremner, “Measurement of dissociative states with the clinician-administered dissociative states scale (CADSS)”, J. Traumatic Stress, 1998, 11(1):125-136), and the 4-item positive symptom subscale from the Brief Psychiatric Rating Scale (BPRS; Overall, “The Brief Psychiatric Rating Scale. Psychological Reports”, 1962, 10:799-812) were assessed pre-dose, at 40 minutes, and 2 hours post-dose.
Safety data were analyzed in Period 1, Period 2, double-blind, and open-label data sets, for all subjects receiving at least 1 dose of study medication.

[1] = double-blind, esketamine 84 mg, N = 17
[2] = double-blind, esketamine Total, N = 56

CN[C@]1(c2ccccc2Cl)CCCCC1=O [esketamine, (S)-2-(2-chlorophenyl)-2-(methylamino)cyclohexanone]
Dysgeusia, % of participants [1]: (29) % | Dysgeusia, number of participants [1]: 5 | Feeling abnormal, % of participants [1]: (6) % | Feeling abnormal, number of participants [1]: 1 | Headache, % of participants [1]: (18) % | Headache, number of participants [1]: 3 | Hypersomnia, number of participants [1]: 0 | Hypertension, % of participants [1]: (6) % | Hypertension, number of participants [1]: 1 | Hypoesthesia oral, % of participants [1]: (12) % | Hypoesthesia oral, number of participants [1]: 2 | Insomnia, number of participants [1]: 0 | Nasal discomfort, % of participants [1]: (6) % | Nasal discomfort, number of participants [1]: 1 | Nausea, % of participants [1]: (24) % | Nausea, number of participants [1]: 4 | Oropharyngeal pain, % of participants [1]: (12) % | Oropharyngeal pain, number of participants [1]: 2 | Polyuria, number of participants [1]: 0 | Sedation, % of participants [1]: (6) % | Sedation, number of participants [1]: 1 | Throat irritation, % of participants [1]: (12) % | Throat irritation, number of participants [1]: 2 | Total with events, % of participants [1]: (88) % | Total with events, number of participants [1]: 15 | Tunnel vision, % of participants [1]: (12) % | Tunnel vision, number of participants [1]: 2 | Vertigo, % of participants [1]: (6) % | Vertigo, number of participants [1]: 1 | Vision blurred, % of participants [1]: (12) % | Vision blurred, number of participants [1]: 2 | Dissociation, % of participants [2]: (20) % | Dissociation, number of participants [2]: 11 | Dissociative disorder, % of participants [2]: (13) % | Dissociative disorder, number of participants [2]: 7 | Dizziness, % of participants [2]: (36) % | Dizziness, number of participants [2]: 20 | Dysgeusia, % of participants [2]: (18) % | Dysgeusia, number of participants [2]: 10 | Feeling abnormal, % of participants [2]: (7) % | Feeling abnormal, number of participants [2]: 4 | Headache, % of participants [2]: (21) % | Headache, number of participants [2]: 12 | Hypersomnia, % of participants [2]: (4) % | Hypersomnia, number of participants [2]: 2 | Hypertension, % of participants [2]: (5) % | Hypertension, number of participants [2]: 3 | Hypoesthesia oral, % of participants [2]: (13) % | Hypoesthesia oral, number of participants [2]: 7 | Insomnia, % of participants [2]: (4) % | Insomnia, number of participants [2]: 2 | Nasal discomfort, % of participants [2]: (5) % | Nasal discomfort, number of participants [2]: 3 | Nausea, % of participants [2]: (18) % | Nausea, number of participants [2]: 10 | Oropharyngeal pain, % of participants [2]: (5) % | Oropharyngeal pain, number of participants [2]: 3 | Polyuria, % of participants [2]: (4) % | Polyuria, number of participants [2]: 2 | Sedation, % of participants [2]: (7) % | Sedation, number of participants [2]: 4 | Throat irritation, % of participants [2]: (5) % | Throat irritation, number of participants [2]: 3 | Total with events, % of participants [2]: (75) % | Total with events, number of participants [2]: 42 | Tunnel vision, % of participants [2]: (4) % | Tunnel vision, number of participants [2]: 2 | Vertigo, % of participants [2]: (7) % | Vertigo, number of participants [2]: 4 | Vision blurred, % of participants [2]: (4) % | Vision blurred, number of participants [2]: 2 | Adverse event: dizziness (open-label phase): 38.6% | Adverse event: dysgeusia (open-label phase): 22.8% | Adverse event: headache (open-label phase): 14.0% | Adverse event: nausea (open-label phase): 15.8% | Adverse event: sedation (open-label phase): 10.5%

Source: US11980596B2 (priority 2017, dated 2024)
